Values quoted from earlier work, collected in publication PMC8287861 (Frontiers in Microbiology, 2021).
Where two headings read alike, the source gives them in different places.

How the values were obtained:
[1] = tested on: KPC-producing strains of Klebsiella pneumoniae and blaKPC mutants; set-up: method as in Nelson et al., 2019; conditions: ref Nelson et al., 2019
Pseudomonas aeruginosa = tested on: Pseudomonas aeruginosa; set-up: method as in Lomovskaya et al. (2021); conditions: ref Lomovskaya et al. (2021); for MIC50 / MIC90: challenge panel, QPX7728 at 8 μg/ml

For `CC(C)(O/N=C(\C(=O)N[C@@H]1C(=O)N2C(C(=O)[O-])=C(C[n+]3ccccc3)CS[C@H]12)c1csc(N)n1)C(=O)O` [Ceftazidime, ceftazidime], the MIC ([1]; KP1074, KPC-3, SHV-11, TEM-1/GD) is given as over 128 µg/mL, the MIC ([1]; KP1099, KPC-2, SHV-11, SHV-12, CTX-M-14/GD) is given as over 128 µg/mL and the MIC ([1]; KP1102, KPC-3, TEM-1, SHV-11/GD) is given as over 128 µg/mL. The MIC ([1]; KP1246, KPC-3, SHV-12, SHV-11/FL) was over 128 µg/mL, the MIC ([1]; KP1252, KPC-3, TEM-1, SHV-11/FL) was over 128 µg/mL and the MIC ([1]; KP1317, KPC-3, TEM-1, SHV-11/GD) was over 128 µg/mL. The MIC ([1]; KP1500, KPC-3, TEM-1, SHV-11, CTX-M-15 OXA-1 OXA-9/IS at −48) was over 128 µg/mL, the MIC ([1]; KPM3191, KPC-3:: DDK duplication at aa#831 (KPC-29)) was over 128 µg/mL and the MIC ([1]; KPM3192, KPC-3:: D179Y (KPC-31)) was over 128 µg/mL. The MIC ([1]; KPM3200, KPC-3::duplication of EAVI (aa#278)) was over 128 µg/mL, the MIC ([1]; KPM3205, KPC-3 ::duplication of KKDY (aa#273)) was over 128 µg/mL and the MIC ([1]; KPM3210, KPC-2::D179N) was over 128 µg/mL. The MIC ([1]; KPM3212, deletion of ELNSAI at aa#497) was over 128 µg/mL, the MIC ([1]; KPM3213, KPC-2::D179Y (KPC-31), selected from KP1099) was over 128 µg/mL and the MIC ([1]; KPM3214, KPC-2::D179A) was over 128 µg/mL. For the same compound, the MIC ([1]; KPM3493, KPC-3::duplication of EL at aa#164 (KPC-25)) was over 128 µg/mL, the MIC ([1]; KPM3494, KPC-3::R167S) was over 128 µg/mL and the MIC ([1]; KPM3495, KPC-3::A175V) was over 128 µg/mL. The MIC ([1]; KPM3511, KPC-3::P174Q) was over 128 µg/mL, the MIC ([1]; KPM3512, KPC-3:: P174L) was over 128 µg/mL and the MIC ([1]; KPM3517, KPC-3::D179Y (KPC-31)) was over 128 µg/mL. The MIC ([1]; KPM3520, Both WT and mutant KPC-3::duplication of 8aa (aa#264–271)) was over 128 µg/mL, the MIC ([1]; KPM3523, Both WT and mutant KPC-3:: deletion of EL (aa#241–242)) was over 128 µg/mL and the MIC ([1]; KPM3546, KPC-3::R164H) was over 128 µg/mL.

For `CCN1CCN(C(=O)N[C@@H](C(=O)N[C@@H]2C(=O)N3[C@@H]2SC(C)(C)[C@@H]3C(=O)O)c2ccccc2)C(=O)C1=O` [Piperacillin, piperacillin], the “% of isolates shifted by QPX7728 at or below breakpoint” value (Pseudomonas aeruginosa; challenge panel (N = 290), with QPX7728, 8 or 16 μg/ml for cefepime and piperacillin, respectively) is listed as 70.3%, the MIC50 (Pseudomonas aeruginosa; All (N = 290)) is listed as over 64 µg/mL and the MIC90 (Pseudomonas aeruginosa; All (N = 290)) is listed as over 64 µg/mL. For the same compound, the MIC50 (Pseudomonas aeruginosa; MBL (N = 61)) was over 64 µg/mL, the MIC90 (Pseudomonas aeruginosa; MBL (N = 61)) was over 64 µg/mL and the MIC50 (Pseudomonas aeruginosa; No MBL (N = 229)) was over 64 µg/mL. For the same compound, the MIC90 (Pseudomonas aeruginosa; No MBL (N = 229)) was over 64 µg/mL.
